“Also recorded” adds a separate entry of the source. Where a SMILES comes first, the peptide text is derived from it. [ ]: non-standard residue; d: D form. dNle = CCCC[C@@H](N)C(=O)O; Ahx = NCCCCCC(=O)O
How the values were obtained:
in vitro = conditions: male, rat, pH 7.38
hippocampal neurons [1] = assay: Dendritic spine counts (spinogenesis) in mRFP-β-actin transfected dissociated hippocampal neurons; type: cell-based, rat; conditions: HGF 10 ng/ml, Dihexa or Nle1-AngIV 10^−12 M
Description: Hippocampal neurons (2×10^5 cells per square cm) were cultured from P1 Sprague Dawley rats on plates coated with poly-L-lysine from Sigma (St. Louis, Mo.; molecular weight 300,000). […] Each experiment was repeated at least three times using independent culture preparations. […] Hippocampal neurons (2×10^5 cells per square centimeter) were cultured from P1-2 Sprague Dawley rats on plates coated with poly-L-lysine from Sigma (St. Louis, Mo.; molecular weight 300,000). Hippocampal neurons were maintained in Neurobasal A media from Invitrogen (Carlsbad, Calif.) supplemented with B27 from Invitrogen, 0.5 mM L-glutamine, and […] cytosine-D-arabinofuranoside from Sigma added at 2 days in vitro. Hippocampal neurons were then cultured a further 3-7 days, at which time they were either transfected or treated with various pharmacological reagents as described in the text or figure legends. Neurons were transfected with mRFP-β-actin on day in vitro 6 […] using LipofectAMINETM 2000 (Invitrogen) according to the manufacturer's protocol. […] On DIV7 the cells were treated with vehicle (H20) or peptides (as described in the text) added to media. […] Five 50 μm long segments of dendrite from at least 10 neurons per data point were analyzed for each data point reported. Each experiment was repeated at least three times using independent culture preparations. […] A target sequence for c-Met was designed using RNAi central design program (see the website located at […].edu/). The target sequence […] NO: 2) was inserted into pSUPER vector (Oligoengine, Seattle Wash.) which drives endogenous production of shRNA under the H1 promoter. The shRNA was transfected into cells using the lipofectamine method described above. Verification of receptor knockdown was done by creating a c-[…]-Myc tagged gene product using the Gateway cloning system (Invitrogen). The Met protein coding sequence was cloned from rat whole brain cDNA using primers obtained from Integrated DNA Technologies, Inc. The amplified product was gel purified and a band corresponding to 190 kDa band excised and cloned into a […] destination vector (Gateway). Hippocampal neurons (2×10^5 cells per square cm) were cultured from P1 Sprague Dawley rats on plates coated with poly-L-lysine from Sigma (St. Louis, Mo.; molecular weight […]).

hippocampal neurons [2] = assay: Immunocytochemistry: percent correlation of spines to synaptic markers; type: cell-based, rat; conditions: HGF 10 ng/ml, 5 days
Description: (§1) Transfected neurons were treated, fixed and stained. Briefly, cells were permeablized with 0.1% Triton X-100 detergent (Bio-Rad; Hercules, Calif.) for 10 minutes. An 8% bovine serum albumin (Intergen Company; Burlington, Mass.) in PBS was used to prevent non-specific binding for one hour at R.T.; Primary antibody incubations were at a 1:2500 dilution (see below) in 1% BSA in PBS at 4° C. overnight. Secondary antibody, 1:3000 Alexafluor 488 goat-anti-mouse (Invitrogen: Carlsbad, Calif.) was applied for two hours at room temperature. Coverslips were mounted with ProLong Gold anti-fade reagent (Invitrogen; Carlsbad, Calif.) and all washes were done with PBS. Imaging and analysis were performed as described above. For presynaptic excitatory transmission the VGLUT1 (Synaptic Systems, Goettingen, Germany) marker (Balschun, Moechars et al.) was employed and for general presynaptic transmission synapsin1 (Synaptic Systems, Goettingen, Germany) (Ferreira and Rapoport 2002) was applied. A postsynaptic function was established by PSD-95 (Milipore, Billerica, Mass.) (El-Husseini, Schnell et al. 2000). In each instance the total number of spines was counted for the treatment groups, control, Nle1-AngIV and Dihexa, to ensure an active phenotype. The total number of actin enriched spines adjacent to VGLUT1 or Synapsin were counted and converted to a percentage as the percent correlation of treatment-induced spines to presynaptic markers is a strong indicator of ability to transmit excitatory signals.
as §1, with “fixed and stained as previously described in Chapter two. Briefly, cells” for “fixed and stained. Briefly, cells”, “enriched spines (red) adjacent to” for “enriched spines adjacent to”
Transfected neurons were treated and fixed as described above. Following fixation, cells were rinsed in PBS and permeabilized with 0.1% Triton® X-100 detergent (Bin-Rad; Hercules, Calif.), followed by two rinses in PBS and blocked with 8% bovine serum albumin (Intergen Company; Burlington, Mass.) in PBS for 1 h. […]

c-Met receptor = assay: c-Met phosphorylation in acute adult hippocampal slices; type: cell-based, rat; conditions: 30 minutes
Excerpt: Adult Sprague-Dawley rats (250 g+) obtained from Harlan Laboratories (Ca, USA) were anesthetized with isofluorane (Vet One™, MWI, Meridian, Id., USA) and decapitated. The brain was rapidly removed and placed into ice-chilled artificial cerebrospinal fluid (aCSF) for approximately 30 s. Both hemispheres were separated by a mid-saggital cut and both hippocampi removed. Slices were sectioned cross- and length-wise (400 μm) to ensure penetrability of the drug, using a Mcllwain tissue chopper (Brinkmann, Gomshall, UK) and transferred to a gassed (95% O2/5% CO2) incubation chamber containing aCSF for 90 minutes at room temperature. Slices were transferred to fresh tubes, aCSF was removed by careful suctioning and replaced with aCSF containing vehicle (aCSF+aCSF), 100 ng/ml with carrier free adult recombinant Hepatocyte Growth Factor (HGF) (R and D Systems, MN, USA) in aCSF, 10^−10 M Hinge (Harding lab), […], 10^−10 M Dihexa (Harding lab) in aCSF, 10^−12 M Dihexa in aCSF or 50 ng/ml HGF+10^−12 M Dihexa in aCSF for 30 minutes at 37° C. with gentle rocking. aCSF was removed and the slices were lysed using RIPA buffer (Upstate/Milipore, Billerica, Mass.) and inhibitor Cocktails I and II (Sigma, St. Louis, Mo.), sonicated on ice and clarified by centrifugation for 30 minutes, 13,000 rpm at 4° C. The supernatant was removed from the pellet and stored at −80° C. or processed immediately for gel electrophoresis.
Protein concentration of the samples was quantified using the BCA method (Pierce, Rockford, Ill.) following the manufacturers protocol. Samples were added to SDS-PAGE buffer and boiled for 10 min. before loading onto a 4-12% Bis-Tris pre-cast gel (Invitrogen, Carlsbad, Calif.) for electrophoresis. Proteins were transferred onto PVDF membranes (Bio Rad, Hercules, Calif.) and blocked with AquaBlock™ (New England Biolabs, Ipswich, Mass.) for 1 hour at room temperature (RT). Primary antibody incubation was done in AquaBlock™ with rabbit anti-Met and […] phospho-Met (Tyr1234/1235) (1:1000, Cell Signaling Technology, Danvers, Mass.) overnight at 4° C. Alternating washes were done with PBS and PBST. Secondary antibody (IRDye) (Rockland, Gilbertsville, Pa.) incubations were done in AquaBlock™ for one hour at RT. Blots were imaged using LI-COR Odyssey Infrared Imaging System (LI-COR Biosciences, Lincoln, Nebr.).

human HGF = biological target: T1, human HGF (Homo sapiens, UniProt P14210); assay: HGF dimerization (PAGE, silver staining); type: biochemical; conditions: analog 10^−10 M, heparin, 30 minute incubation
T1 construct: purchased R&D Systems (Minneapolis, Minn.)
T1 sequence (P14210 32-728): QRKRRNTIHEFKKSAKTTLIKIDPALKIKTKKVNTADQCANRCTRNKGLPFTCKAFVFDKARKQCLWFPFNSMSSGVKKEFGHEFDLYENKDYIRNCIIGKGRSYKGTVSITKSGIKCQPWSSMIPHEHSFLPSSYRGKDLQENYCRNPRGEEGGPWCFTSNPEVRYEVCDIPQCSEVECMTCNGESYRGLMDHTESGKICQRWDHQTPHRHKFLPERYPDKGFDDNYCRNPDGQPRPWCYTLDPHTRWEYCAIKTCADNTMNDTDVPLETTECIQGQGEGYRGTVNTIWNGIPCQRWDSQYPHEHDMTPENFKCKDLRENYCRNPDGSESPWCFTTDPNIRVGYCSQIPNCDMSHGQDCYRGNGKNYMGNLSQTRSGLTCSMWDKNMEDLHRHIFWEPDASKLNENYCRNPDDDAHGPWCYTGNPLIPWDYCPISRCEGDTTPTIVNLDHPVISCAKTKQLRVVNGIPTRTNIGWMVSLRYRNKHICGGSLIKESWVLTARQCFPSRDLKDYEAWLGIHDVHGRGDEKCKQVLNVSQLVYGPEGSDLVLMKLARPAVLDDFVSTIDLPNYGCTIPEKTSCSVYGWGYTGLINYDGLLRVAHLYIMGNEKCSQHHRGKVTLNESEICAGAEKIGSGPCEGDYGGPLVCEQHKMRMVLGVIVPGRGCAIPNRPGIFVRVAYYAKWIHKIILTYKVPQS
Description: HGF dimerization was assessed using PAGE followed by silver staining (Kawas et al., 2011). Human HGF at a concentration of 0.08 ng/μl with or without 6-AH analogs was incubated with heparin at a final concentration of 5 μg/ml. Loading buffer was then added to each sample and the mixture separated by native PAGE using gradient Criterion XT precast gels (4-12% Bis-Tris; Biorad Laboratories, Hercules, Calif.). Next the gel was silver stained for the detection of the HGF monomers and dimers. Bands were quantitated from digital images using a UVP phosphoimager (Upland, Calif.).

MDCK cells [3] = assay: Inhibition of HGF-dependent scattering in MDCK cells; type: cell-based, canine; conditions: HGF 20 ng/ml, 48 h
Description: (§2) MDCK cells were grown to 100% confluency on the coverslips in six-well plates and washed twice with PBS. The confluent coverslips were then aseptically transferred to new six well plates containing 900 μl serum free DMEM. Norleual, Hinge peptide, and/or HGF (20 ng/ml) were added to appropriate wells. Control wells received PBS vehicle. Plates were incubated at 37° C. with 5% CO2 for 48 hours. Media was removed and cells were fixed with methanol. Cells were stained with Diff-Quik Wright-Giemsa (Dade-Behring, Newark, Del.) and digital images were taken. Coverslips were removed with forceps and more digital images were captured. Pixel quantification of images was achieved using Image J and statistics were performed using Prism 5 and InStat v.3.05.
as §2, with “h.” for “hours.”, “Cells were stained with Diff-Quik Wright-Giemsa (Dade-Behring, Newark, Del.) and digital images were taken. Coverslips were removed with forceps and more digital images were captured.” left out, “v.3.05 (GraphPad; San Diego, Calif.).” for “v.3.05.”

MDCK cells [4] = assay: HGF-dependent MDCK cell proliferation (MTT); type: cell-based, canine; conditions: analog 10^−10M, HGF 10 ng/ml, 4 days
Description: 5000 MDCK cells were seeded into the wells of a 96 well plates in 10% FBS DMEM. To induce cellular quiescence, the cells were serum deprived for 24 h prior to initiating the treatments. Following serum starvation, 10 ng/ml HGF alone and with various concentrations of 6-AH analogs or PBS vehicle were added to the media. The cells were allowed to grow under these conditions for 4 days with a daily addition of 6-AH analogs. On the fourth day, 1 mg/ml of […] (MTT, Sigma-Aldrich) prepared in PBS was added to the cells and incubated for 4 h. Dimethyl sulfoxide diluted in a 0.01M glycine buffer was added to solubilize the cell membranes and the absorbance of reduced MTT in the buffer was quantitated at 590 nm using a plate reader (Biotek Synergy 2, Winooski, Vt.). HGF-dependent proliferation was determined by subtracting the basal proliferation (in the absence of HGF) from total proliferation rates in groups containing HGF.

Work on CN1C(C(=O)Nc2ccccn2)=C(O)c2ccccc2S1(=O)=O [piroxicam, reference compound] yielded a microsomal CLint at 5 µM (in vitro; microsomes) of 60.2 µL/min/mg.
With “HGF: carrier free adult recombinant Hepatocyte Growth Factor (R and D Systems)” the “mean spine numbers per 50 μm dendrite length” value (hippocampal neurons [1]; neurons transfected with mRFP-β-actin alone, 48 hours) was 20.6 spines per 50 μm dendrite leng, the “mean spine numbers per 50 μm dendrite length” value (hippocampal neurons [1]; neurons transfected with mRFP-β-actin and shMet (c-Met knock-down)) was 12.4 spines per 50 μm dendrite leng and the “correlation between Synapsin and postsynaptic actin-enriched spines” value (hippocampal neurons [2]) was 98%. The “c-Met phosphorylation vs vehicle (aCSF)” value (c-Met receptor; saturating doses: HGF 100 ng/ml, Dihexa 10^−10 M) was “increased c-Met phosphorylation; also recorded: effectively augment c-Met phosphorylation” and the “c-Met phosphorylation vs vehicle (aCSF)” value (c-Met receptor; sub-threshold doses: HGF 50 ng/ml, Dihexa 10^−12 M) was “not statistically different from control treated slices; also recorded: did not significantly increase c-Met receptor phosphorylation”.
For CCCC[C@@H](N)C(=O)N[C@@H](CCSC)C(=O)N[C@H](C(=O)NCCCCCC(N)=O)[C@@H](C)CC [D-Nle-Met-Ile-NH—(CH2)5—CONH2] (H-[dNle]MI[Ahx]-NH2), the “inhibition of HGF dimerization” value (human HGF) was “unable to block dimerization at the concentration tested” and the “inhibition of HGF-dependent MDCK cell scattering” value (MDCK cells [3]) was “The HGF and HGF+Met groups were not different”.
With CCCC[C@@H](N)C(=O)N[C@@H](Cc1c[nH]c2ccccc12)C(=O)N[C@H](C(=O)NCCCCCC(N)=O)[C@@H](C)CC [D-Nle-Trp-Ile-NH—(CH2)5—CONH2] (H-[dNle]WI[Ahx]-NH2) the “inhibition of HGF dimerization” value (human HGF) was “intermediate inhibition of dimerization”, the “inhibition of HGF dimerization” value (human HGF; listed as Trp) was “statistically different than the HGF treated group” and the “inhibition of HGF-dependent MDCK cell proliferation” value (MDCK cells [4]) was “showed inhibitory activity, albeit less than that observed with the most potent analogs”.
CCOc1ccc2ccc(=O)oc2c1 [7-ethoxycoumarin, reference compound] showed a microsomal CLint at 5 µM (in vitro; pooled liver microsomes) of 137 µL/min/mg.
